The text below walks through data of ChEMBL document CHEMBL1129049, “Structure-activity analysis of anandamide analogs: relationship to a cannabinoid pharmacophore” (1996).

Assay [1] is filed under the species Mus musculus. Nature of the assay: Effective dose required to increase tail-flick latency in mice. The assay is classed as functional. (In general: Hot-plate and tail-flick tests time the reaction to a heat stimulus.)
The species entered for assay [2] is Mus musculus. Nature of the assay: Effective dose required to inhibit spontaneous locomotor activity in mice. It counts as functional.

Broadly, the ED50 is the dose that gives a 50% effect, or the effect in half of the subjects. A higher ED50 goes with a need for a large dose.

SMILES strings stand for the structures.

Turning to `CCCCC/C=C\C/C=C\C/C=C\C/C=C\CCCC(=O)NCCCCCO`, the ED50 in the assay listed under Mus musculus [1] was found to be 72.9 µmol/kg; in the assay listed under Mus musculus [2], 49.5 µmol/kg.
On the same counts, the results for `CCCCC/C=C\C/C=C\C/C=C\C/C=C\CCCC(=O)NCCCO` are 61.4 µmol/kg and 43.7 µmol/kg.
Regarding `CCCCC/C=C\C/C=C\C/C=C\C/C=C\CCCC(=O)NCCOc1ccccc1`, the 50% effective dose (ED50) was 74.1 µmol/kg in the assay filed under Mus musculus [1] and 23 µmol/kg in the assay listed under Mus musculus [2].
For `CCCCC/C=C\C/C=C\C/C=C\C/C=C\CCC(C)(C)C(=O)NCCO`, the figures for the ED50 in the assay filed under Mus musculus [1] and in the assay filed under Mus musculus [2] were 49.6 µmol/kg and 30.5 µmol/kg, respectively.
In the same order, the values of `CCCCC/C=C\C/C=C\C/C=C\C/C=C\CCCC(=O)N1CCOCC1` are 25.4 µmol/kg and 20.7 µmol/kg.
On the same counts, the results for `CCCCC/C=C\C/C=C\C/C=C\C/C=C\CCCC(=O)NCCF` are 190 µmol/kg and 57.2 µmol/kg.
Take `CCCCC/C=C\C/C=C\C/C=C\C/C=C\CCCC(=O)NCCOC`: the ED50 in the assay filed under Mus musculus [2] amounted to 186 µmol/kg.
Take `CCCCC/C=C\C/C=C\C/C=C\C/C=C\CCCC(=O)NCCO` [ANANDAMIDE]: the results for the ED50 in the assay filed under Mus musculus [1] and in the assay filed under Mus musculus [2] were 17.4 µmol/kg and 50.3 µmol/kg, respectively.
